From patent EP4162935B1 (UNIVERSIDADE NOVA DE LISBOA, priority 2021, dated 2023)

Key:
SARS-CoV-2 = SARS-CoV-2 cell infection assay in Vero E6 cells, intracellular ATP levels (CellTiter-Glo) and cytopathic effect
[1] = oral administration of a single dose of 300 mg/kg and 2000 mg/kg, 14 days of observation; cited from earlier work

COc1ccc(-c2cc(=O)c3c(O)cc(O)cc3o2)cc1O [diosmetin, 5,7-Dihydroxy-2-(3-hydroxy-4-methoxyphenyl)-4H-benzopyran-4-one]
duration of antiviral effect (SARS-CoV-2; 45 µM): 72 h
optimal concentration (SARS-CoV-2; same as in µM, Vero E6 cells, 30 pfu SARS-CoV-2, 72h): 13.5 µg/mL
signs of toxicity or mortality [1]: did not demonstrate any signs of toxicity or mortality
